2 compounds from patent US10011573B2, “Human androgen receptor DNA-binding domain (DBD) compounds as therapeutics and methods for their use” (The University of British Columbia, priority 2014, dated 2018) can be followed below.

One experiment has as its target AR Y594A mutant (Homo sapiens, UniProt P10275, Y594A). The experiment is described as follows: ARR3tk-luciferase reporter assay in PC3 cells, AR Y594A. On the technique in general: Reporter assays use an easily measured gene product as a stand-in for the process of interest.
The next experiment deals with PC3 cells. Briefly: Cell viability (MTS) assay, PC3. It counts as cell-based, human. Particulars: 0.1 nM R1881. As for the experimental part:
1. Cell Culture: LNCaP and PC3 human prostate cancer cells were obtained from American Type Culture Collection (ATCC, Manassas, Va.) and grown in RPMI 1640 medium supplemented with 5% fetal bovine serum (FBS) (Invitrogen). […]. All cells were maintained at 37° C. in 5% CO2.
7. Cell viability assay: The PC3, LNCaP, and MDV3100-resistant cells were plated at 3,000 cells per well in RPMI 1640 containing 5% charcoal stripped serum (CSS) in a 96-well plate, treated with 0.1 nM R1881 and compounds (0-25 μM) for 96 hrs.

For another experiment, the target named is AR Q592A mutant (Homo sapiens, UniProt P10275, Q592A). Briefly: ARR3tk-luciferase reporter assay in PC3 cells, AR Q592A.
Another experiment has as its target AR-V7Y594D (Homo sapiens, UniProt P10275, Y594D). Briefly: ARR3tk-luciferase reporter assay in PC3 cells, AR-V7 Y594D.
In experiment [1] the target is T1, YFP-AR (Homo sapiens, UniProt P10275).
T1 construct: plasmids encoding YFP-tagged full-length AR (yellow fluorescent protein, YFP-AR); expressed in transfected cells; host or cells: PC3
T1 sequence (P10275 1-920): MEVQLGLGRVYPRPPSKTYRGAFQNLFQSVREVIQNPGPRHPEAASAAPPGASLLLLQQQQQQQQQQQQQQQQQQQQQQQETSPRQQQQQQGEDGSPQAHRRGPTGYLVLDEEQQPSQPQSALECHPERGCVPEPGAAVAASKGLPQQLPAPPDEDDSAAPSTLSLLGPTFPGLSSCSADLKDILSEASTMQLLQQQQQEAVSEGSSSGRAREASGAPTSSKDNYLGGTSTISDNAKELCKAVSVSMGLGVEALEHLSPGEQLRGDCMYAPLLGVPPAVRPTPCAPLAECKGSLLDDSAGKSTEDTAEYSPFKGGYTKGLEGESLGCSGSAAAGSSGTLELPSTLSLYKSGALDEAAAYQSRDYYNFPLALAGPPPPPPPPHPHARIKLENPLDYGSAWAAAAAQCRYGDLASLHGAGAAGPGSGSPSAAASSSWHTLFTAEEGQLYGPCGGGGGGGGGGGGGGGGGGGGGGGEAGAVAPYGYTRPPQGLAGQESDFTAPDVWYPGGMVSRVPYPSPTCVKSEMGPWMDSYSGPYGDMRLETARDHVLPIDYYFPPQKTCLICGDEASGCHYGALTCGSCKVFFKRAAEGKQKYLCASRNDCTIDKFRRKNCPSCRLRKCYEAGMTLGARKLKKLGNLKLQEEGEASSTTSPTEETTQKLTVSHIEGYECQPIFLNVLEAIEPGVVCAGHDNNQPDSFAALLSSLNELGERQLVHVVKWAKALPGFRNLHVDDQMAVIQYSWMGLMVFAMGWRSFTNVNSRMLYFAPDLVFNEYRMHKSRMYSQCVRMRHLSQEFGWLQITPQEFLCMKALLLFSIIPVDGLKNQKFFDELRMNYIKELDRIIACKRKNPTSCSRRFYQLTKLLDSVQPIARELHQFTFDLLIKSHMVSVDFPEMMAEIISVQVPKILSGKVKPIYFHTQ
The experiment is described as follows: Confocal microscopy of YFP-AR nuclear localization in PC3 cells. Format: cell-based. As for the experimental part:
Transfection of YFP-AR or YFP-V7 plasmids (100 ng per well) was performed using TT20 (3 μl) for 48 h. […] After aspiration of the media, cells were washed once with PBS and fixed in 4% paraformaldehyde overnight at 4° C., followed by mounting on charged cover slides using DAPI mount (Vector Laboratories).

The target of experiment [2] is T1, YFP-AR. The experiment is described as follows: Luciferase assay with YFP-AR in PC3 cells. It counts as cell-based. An excerpt:
the underlined primer sections anneal to the specified template, although their 5′-extensions (italicized) are complementary to the corresponding primer sequence of the other PCR. Plasmid assembly is achieved by mixing the PCR products from each reaction (Klock, H. E. et al. (2008) Combining the polymerase incomplete primer extension method for cloning and mutagenesis with microscreening to accelerate structural genomics efforts. Proteins 71, 982-994), followed by transformation into chemically competent bacteria. A similar strategy was used to clone the AR-DBD+hinge into the Pan4 vector (avidity) expressing the N-terminal biotinylation sequence ([…] ) and C-terminal His tag. YFP-AR plasmid was a gift from Dr. Jan Trapman (van Royen, M. E. et al. (2012) Stepwise androgen receptor dimerization. J. Cell Sci. 125, 1970-1979) and is based on pEYFP-C1 (Clontech™). YFP-V7 was constructed by polymerase incomplete primer extension method using the following primers and templates: AR-V7 insert from pcDNA3. AR-V7 template

Another experiment deals with T2, AR Q592D mutant (Homo sapiens, UniProt P10275, Q592D).
T2 construct: Full-length human AR (hARWT) or splice variant (AR-V7) was encoded on a pcDNA3.1 expression plasmid; expressed in transfected cells; host or cells: PC3
Briefly: ARR3tk-luciferase reporter assay in PC3 cells, AR Q592D. Format: cell-based. As for the experimental part:
(§1) 8. Mutation Studies: The residues in the predicted binding site were mutated using the Quickchange™ Site-Directed Mutagenesis Kit as per the instructions.
(§2) 9. Transient Transfection: The PC3/MCF7 cells were seeded into a 96-well plate (2,000 cells/well). After 24 hrs, the wild-type AR (50 ng/well)/AR mutants and AR3TK-luciferase plasmids (1:3) were co-transfected into PC3 cells or ERE-luciferase (50 ng/well) was transfected into MCF7 cells using transfection reagent TT20. 24 hrs after the transfection, the cells were treated with the compounds at various concentrations. And 24 hrs later, the cells were lysed and the reading was taken using a luminometer.

The target in the next experiment is T3, AR Y594D mutant (Homo sapiens, UniProt P10275, Y594D).
T3 construct: expressed in transfected cells; host or cells: PC3
Briefly: ARR3tk-luciferase reporter assay in PC3 cells, AR Y594D. Format: cell-based. As for the experimental part:
as §1, §2

In another experiment the test system is AR v567es. Briefly: ARR3tk-luciferase assay in R1-D567 cells. It counts as cell-based, human.
The next experiment addresses T4, AR-V7 (Homo sapiens, UniProt P10275).
T4 construct: expressed in transfected cells; host or cells: PC3
The experiment is described as follows: ARR3tk-luciferase reporter assay in PC3 cells, splice variant AR-V7. Format: cell-based. An excerpt:
Full-length human AR (hARWT) or splice variant (AR-V7) was encoded on a pcDNA3.1 expression plasmid.

SMILES strings stand for the structures. Entries after “also recorded” stand apart in the source; their conditions may differ. Where two headings read alike, the source gives them in different places.

T4 sequence (P10275 1-644 isoform P10275-3): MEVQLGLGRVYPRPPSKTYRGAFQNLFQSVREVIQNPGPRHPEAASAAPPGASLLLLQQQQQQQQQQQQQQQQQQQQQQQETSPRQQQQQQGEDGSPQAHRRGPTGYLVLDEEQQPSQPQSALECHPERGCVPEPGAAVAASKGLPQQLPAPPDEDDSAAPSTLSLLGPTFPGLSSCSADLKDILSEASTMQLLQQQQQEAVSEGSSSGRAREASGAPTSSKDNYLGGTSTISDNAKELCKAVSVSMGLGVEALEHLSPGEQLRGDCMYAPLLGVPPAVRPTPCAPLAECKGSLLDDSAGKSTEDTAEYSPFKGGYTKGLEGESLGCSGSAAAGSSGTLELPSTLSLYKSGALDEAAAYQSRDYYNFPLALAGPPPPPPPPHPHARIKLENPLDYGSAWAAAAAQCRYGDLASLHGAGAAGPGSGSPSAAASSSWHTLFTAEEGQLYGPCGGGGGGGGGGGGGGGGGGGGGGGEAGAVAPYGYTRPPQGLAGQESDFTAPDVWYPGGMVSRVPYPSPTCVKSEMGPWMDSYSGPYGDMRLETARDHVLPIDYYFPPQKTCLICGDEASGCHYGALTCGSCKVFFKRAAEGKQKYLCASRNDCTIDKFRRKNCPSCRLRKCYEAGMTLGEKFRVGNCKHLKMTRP
T3 sequence (P10275 whole entry Y594D): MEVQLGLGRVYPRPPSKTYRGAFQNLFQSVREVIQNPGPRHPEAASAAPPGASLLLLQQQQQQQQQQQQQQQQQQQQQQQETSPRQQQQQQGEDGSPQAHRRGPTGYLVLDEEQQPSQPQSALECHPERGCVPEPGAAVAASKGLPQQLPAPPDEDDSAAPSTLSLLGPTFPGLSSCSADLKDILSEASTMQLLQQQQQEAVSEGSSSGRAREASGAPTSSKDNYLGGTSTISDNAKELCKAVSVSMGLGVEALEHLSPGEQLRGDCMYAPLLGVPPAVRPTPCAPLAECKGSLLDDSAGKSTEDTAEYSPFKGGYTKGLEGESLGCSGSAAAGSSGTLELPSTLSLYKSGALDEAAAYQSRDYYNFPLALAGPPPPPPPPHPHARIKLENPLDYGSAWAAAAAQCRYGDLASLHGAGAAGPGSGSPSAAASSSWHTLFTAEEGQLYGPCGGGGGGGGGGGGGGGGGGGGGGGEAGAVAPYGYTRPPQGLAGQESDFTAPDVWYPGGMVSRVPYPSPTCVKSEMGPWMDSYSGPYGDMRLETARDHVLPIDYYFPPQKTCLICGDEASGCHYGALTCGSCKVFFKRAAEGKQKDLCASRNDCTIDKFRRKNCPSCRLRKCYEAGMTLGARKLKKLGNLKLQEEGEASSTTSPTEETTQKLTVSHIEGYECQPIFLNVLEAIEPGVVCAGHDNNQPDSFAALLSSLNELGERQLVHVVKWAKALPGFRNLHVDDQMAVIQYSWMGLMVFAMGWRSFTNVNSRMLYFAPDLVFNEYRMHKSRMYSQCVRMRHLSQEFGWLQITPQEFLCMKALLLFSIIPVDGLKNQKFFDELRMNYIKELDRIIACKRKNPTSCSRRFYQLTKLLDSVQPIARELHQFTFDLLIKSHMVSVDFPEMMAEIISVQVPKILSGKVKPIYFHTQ
Sequence of AR-V7Y594D (P10275 1-644 isoform P10275-3 Y594D): as the sequence (P10275 1-644 isoform P10275-3) above, with Y594D counted along it
T2 sequence (P10275 whole entry Q592D, canonical isoform): as the sequence (P10275 whole entry Y594D) above, with Q592D, D594Y counted along it
Sequence of AR Q592A mutant (P10275 whole entry Q592A): as the sequence (P10275 whole entry Y594D) above, with Q592A, D594Y counted along it
Sequence of AR Y594A mutant (P10275 whole entry Y594A): as the sequence (P10275 whole entry Y594D) above, with D594A counted along it
Experimental for AR Q592A mutant: (§3) Cells were then treated with compounds at various concentrations and 0.1 nMR1881 (in 100% ethanol) for 24 h. […] Cell lysis was carried out with 60 μl of 1X passive lysis buffer/well (Promega™)
(§4) 20 μl of cell lysate from each well were mixed with 50 μl of luciferase assay reagent (Promega™), and luminescence was recorded on a TECAN™ M200pro plate reader. Luciferase assays with splice variant AR were performed the same way but with only 5 ng of pcDNA3.1 AR-V7 (to limit the high level of AR-V7 expression) and no R1881.
Experimental for AR Y594A mutant: as §3, §4
Experimental for AR-V7Y594D: as §3, §4

With `Brc1ncn(-c2csc(N3CCOCC3)n2)c1Br` [Compound 14449], the IC50 at AR Y594A mutant and against AR Q592A mutant was 3 to 6 µM throughout. Also, the “inhibition of cell growth, PC3 (AR-negative)” value in the experiment on PC3 cells was “ineffective”. Also, the “inhibition of AR-V7Y594D transcriptional activity” value at AR-V7Y594D is “could not be inhibited”. At YFP-AR [1] (10 nM R1881, 25 μM compound, 6 h), the “R1881-stimulated nuclear localization of YFP-AR” value is “did not prevent R1881-stimulated nuclear localization”. Besides, the “nuclear localization of YFP-AR in the absence of R1881” value at YFP-AR [1] (25 μM compound) is “could not stimulate any nuclear localization”. Moreover, the “inhibition of YFP-AR driven luciferase expression” value against YFP-AR [2] is “could be inhibited”. Also, the “concentration at which Q592D AR is inhibited” value on AR Q592D mutant (PC3 cells) is at least 25 µM. Further, the “concentration at which Y594D AR is inhibited” value at AR Y594D mutant (PC3 cells) was at least 25 µM. In addition, the “inhibition of AR v567es transcriptional activity” value in the experiment on AR v567es is given as “could inhibit”. For the same compound, the “inhibition of AR-V7 transcriptional activity” value on AR-V7 (PC3 cells, no R1881) was “reduced with increasing concentrations; also recorded: inhibit the transcription of AR-V7 in a concentration-dependent manner”.

`c1ccc(-c2csc(N3CCOCC3)n2)cc1` [Compound 14228, 4-(4-phenylthiazol-2-yl)morpholine] registered an IC50 at AR Y594A mutant of 3 to 6 µM. In the experiment on PC3 cells, the “inhibition of cell growth, PC3 (AR-negative)” value is on record as “no effect”. Moreover, the IC50 against AR Q592A mutant was in the range of 3 to 6 µM. Besides, the “inhibition of AR-V7Y594D transcriptional activity” value at AR-V7Y594D is on record as “could not be inhibited”. On YFP-AR [1], the “R1881-stimulated nuclear localization of YFP-AR” value is “did not prevent R1881-stimulated nuclear localization” and the “nuclear localization of YFP-AR in the absence of R1881” value was “could not stimulate any nuclear localization”. Also, the “inhibition of YFP-AR driven luciferase expression” value against YFP-AR [2] is “could be inhibited”. On AR Q592D mutant, the “inhibition of Q592D AR luciferase expression” value is given as “not affected”. In addition, on AR Y594D mutant, the “inhibition of Y594D AR luciferase expression” value was “not affected”. In the experiment with AR v567es, the “inhibition of AR v567es transcriptional activity” value is reported as “could inhibit”. Besides, the “inhibition of AR-V7 transcriptional activity” value against AR-V7 is on record as “reduced with increasing concentrations; also recorded: inhibit the transcription of AR-V7 in a concentration-dependent manner”.

As a reminder, the IC50 is the midpoint of a concentration-inhibition curve. Higher therefore signals lower potency.
